From US20090192327A1, “METHODS AND COMPOSITIONS FOR INHIBITING BIOFILMS” (Sequoia Sciences, Inc., priority 2004, published 2009)
“Also recorded” adds a separate entry of the source.

Tests used:
Pseudomonas aeruginosa [1] = assay: Microtiter plate biofilm inhibition assay (crystal violet); type: cell-based; conditions: 10 μg/ml, LB media with 0.2% glucose, 24 hours at room temperature, average of three wells
Procedure: A microtiter plate assay was used to quantitatively measure the effect each tested compound had on the ability of bacteria to form a biofilm. In this example, a concentrated solution of each compound tested was loaded separately into three separate wells of a polystyrene microtiter plate. In addition, each assay included triplicate wells correlating to negative and positive controls. For the positive controls, biofilm inhibitors of known activity were used, whereas no inhibitors were added to wells correlating to negative controls. […] Thus, each well contained a final volume of approximately 200 μl (not including the volume of the concentrated inhibitor). […] The microtiter plates were then placed on a shaker for 24 hours at room temperature. After the 24 hour incubation period, the microtiter plate was removed from the shaker, rinsed, and stained. During the rinsing step, the test compound, media, and bacterial inoculum solution was drained from the plate, approximately 300 μl of 0.1M phosphate buffered saline (PBS) was added to each well, which was subsequently drained from the plate. The rinsing step removed any suspended cells from the assay. 0.1% crystal violet stain was added to each well for approximately 20 minutes. Next, the crystal violet solution was drained from the microtiter plate. The plate was rinsed with PBS as described above four (4) times to remove any excess stain from the plate. Following the PBS rinsing steps, the plate was eluted with 250 μl/well of ethanol, which improved the detection of the stain. The plate was immediately analyzed spectrophotometrically at 540 nm using a microtiter plate reader. The inhibitory effect each compound had on the bacteria's ability to form a biofilm on the surface of each well was determined as follows: The absorbance values observed for each set of three (3) wells correlating with a test compound or control were averaged. The average absorbance value for each test compound was compared to the average absorbance value of the negative control (the positive control was employed to verify proper assay function). In general, biofilm inhibition activity is inversely proportional to absorbance values, whereby, for example, low absorbance values correlate with significant inhibition activity and high absorbance values correlate with small or no inhibition activity. The approximate percent inhibition observed for each compound was calculated by comparing the average absorbance value for each test compound to the average absorbance value for the negative controls. Table 2 summarizes the average percent inhibition observed for the tested compounds listed against biofilms generated by Pseudomonas aeruginosa.

Pseudomonas aeruginosa [2] = assay: Minimum inhibitory concentration (NCCLS broth microdilution); type: cell-based; conditions: LB media with 0.2% glucose, 35° C. for 20-24 hours
Procedure: The minimum inhibitory concentrations (MICs) for several of the specific biofilm inhibitors described herein were determined against several targets, including P. aeruginosa, E. coli, and Staphylococcus aureus. The MICs of the biofilm inhibitors were measured using the reference broth microdilution method recommended by the National Committee for Clinical Laboratory Standards (NCCLS). […] In each assay, positive and negative controls were employed, wherein the positive control included an antimicrobial agent with a known potency range that was used to ensure proper assay performance. The negative control, generally, included the solvent in which the test compounds were dissolved. In this example, the wells correlating to the negative controls included ethanol (without any biofilm inhibitors). […] Thus, each well contained a final volume of approximately 200 μl (not including the volume of the concentrated inhibitor). […] After bacterial inoculation and loading of test and control samples, the plate was incubated in an ambient air environment at 35° C. for 20-24 hours. The plate was subsequently rinsed, stained, and analyzed in accordance with the procedures described in Example 1. […] The minimum inhibitory concentrations were calculated as the lowest inhibitor concentration at which biofilm inhibition was observed.

Escherichia coli = assay: as above; type: cell-based; conditions: LB media with 0.2% glucose, 35° C. for 20-24 hours
Procedure: (§1) The minimum inhibitory concentrations (MICs) for several of the specific biofilm inhibitors described herein were determined against several targets, including P. aeruginosa, E. coli, and Staphylococcus aureus. The MICs of the biofilm inhibitors were measured using the reference broth microdilution method recommended by the National Committee for Clinical Laboratory Standards (NCCLS).
(§2) […]. The negative control, generally, included the solvent in which the test compounds were dissolved. In this example, the wells correlating to the negative controls included ethanol (without any biofilm inhibitors).
(§3) In this example, 150 μl of sterile media was added to each well (LB media with 0.2% glucose), along with appropriate volumes of concentrated solutions of the inhibitors to be tested, followed by 50 μl of bacterial inoculum. Thus, each well contained a final volume of approximately 200 μl (not including the volume of the concentrated inhibitor). […]. The plate was subsequently rinsed, stained, and analyzed in accordance with the procedures described in Example 1.
(§4) Tables 7, 8, and 9 summarize the data observed and, specifically, the MICs calculated for the several compounds referenced therein against P. aeruginosa, E. coli, and S. aureus, respectively. The minimum inhibitory concentrations were calculated as the lowest inhibitor concentration at which biofilm inhibition was observed.

Staphylococcus aureus = assay: as above; type: cell-based; conditions: LB media with 0.2% glucose; 35° C. for 20-24 hours
Procedure: as §1, §2, §3, §4

E. coli JM109 = assay: Biofilm inhibition assay in 96 well plates (adapted from Pratt and Kolter); type: cell-based, Escherichia coli; conditions: 10 μg/ml, LB with or without 0.2% glucose, 37° C. for two days without shaking
Procedure: Such compounds were evaluated using an assay adapted from a protocol reported in Pratt and Kolter, 1998, Molecular Microbiology, 30: 285-293; and Li et al., 2001, J. Bacteriol., 183: 897-908. […] Negative controls included only ethanol (the solvent for each test compound). To quantify the biofilm mass, the suspension culture was removed, the biofilm was washed three times with water, and then stained with 0.1% crystal violet for 20 minutes. Next, the plates were washed three times with water and analyzed by spectrophotometry at 540 nm to quantify the biofilm mass (by comparing the biofilm mass in the wells containing a test compound to that of the control wells).

E. coli [3] = assay: Dose/response biofilm assay against E. coli (crystal violet, 540 nm); type: cell-based, Escherichia coli
Procedure: In this example, dose/response characteristics of the biofilm inhibitors were measured using compound 108. The assay employed to measure such dose/response characteristics was adapted from a reported protocol. See Pratt and Kolter, 1998, Molecular Microbiology, 30: 285-293; and Li et al., 2001, J. Bacteriol., 183: 897-908.
The biofilm inhibitory effect of compound 108 was then evaluated at different times and concentrations. In the first assay, compound 108 was added to the test system at the same time as the E. coli inoculum. Specifically, compound 108 was added to the system at final concentrations of 0, 1, 2, 5, and 10 μg/mL along with 50 μL of E. coli inoculum and 150 μL of LB media to measure its ability to inhibit the formation of biofilms. In a second assay, compound 108 was added after a biofilm had formed, i.e., 24 hours after the assay plate was inoculated with E. coli in LB media. In a third assay, compound 108 was tested at 0, 1, 2, 5, 10, and 15 μg/mL against E. coli in LB media with 0.2% glucose (whereby compound 108 was introduced into the system at the time of inoculation).
The suspension culture in each of the assay systems described above was drained from the plate and the residual biofilm, if any, was washed three (3) times with water. A solution containing 0.1% crystal violet was added to each well and maintained thereon for approximately 20 minutes. Following the staining procedure, each well was rinsed three (3) times with water. Each well was then analyzed spectrophotometrically in a microtiter plate reader at 540 nm to quantitate approximate biofilm mass and inhibition of biofilm growth by comparison to a negative control, which included inoculum and growth media alone.

E. coli [4] = assay: Effect on viability/growth of E. coli (absorbance 620 nm); type: cell-based, Escherichia coli; conditions: 1 to 15 μg/mL; LB media; 37° C. for two days; FIG. 1
Procedure: The dose/response behavior of compound 108 was tested against E. coli in LB media with and without 0.2% glucose. First, the effect of compound 108 on the viability of E. coli was measured. Compound 108 was added to a 96-well microtiter plate in triplicate wells to final concentrations of 0, 1, 2, 5, 10, and 15 μg/mL. Compound 108 was added to each well on the plate along with 50 μL of E. coli inoculum and 150 μL of LB and incubated at 37° C. for two days without shaking. After incubation, the plate was analyzed spectrophotometrically at 620 nm to quantitate the approximate levels of E. coli growth. The absorbance values observed for the test wells were averaged and compared to a negative control, i.e., wells containing no biofilm inhibitor.

[5] = system: Staphylococcus epidermidis; assay: Biofilm inhibition assay against Staphylococcus epidermidis; type: cell-based; conditions: final concentration of 10 μg/ml, read-out: Inhibition of biofilm formation by S. epidermidis
[6] = system: human hepatocellular carcinoma cells (HepG2); assay: Cytotoxicity, fluorometric detection of mitochondrial activity; type: cell-based; conditions: triplicate, approximate, gross cytotoxicity
Source text: Met. […] Chlorpromazine (or its equivalent) was used as a positive control.

[7] = system: Pseudomonas aeruginosa strain PAO 1; assay: Rotating disk reactor biofilm test in combination with tobramycin; type: cell-based; conditions: 48 hours biofilm; compound 110 approximately 100 μg/mL for 24 hours; tobramycin 100 μg/mL for two hours; polystyrene coupons
Procedure: In this example, compound 110 was tested for biofilm inhibition with Pseudomonas aeruginosa in combination with Tobramycin. Specifically, biofilm formation of P. aeruginosa was evaluated using a standardized biofilm method with a rotating disk reactor (RDR), which is also known as “ASTM Standard Method #E-2196-02.” The rotating disk reactor consisted of a one-liter glass beaker fitted with a drain spout. The bottom of the vessel contained a magnetically driven rotor with six 1.27 cm diameter coupons constructed from polystyrene. The rotor consisted of a star-head magnetic stir bar upon which a disk was affixed to hold the coupons. The vessel (with the stir bar) was placed on a stir plate and rotated to provide fluid shear. A nutrient solution (AB Trace Medium with 0.3 mM glucose, see Table 5 below for specific formulation) was added through a stopper in the top of the reactor at a flow rate of 5 mL/min. The reactor volume was approximately 180 mL. At a volume of 180 mL, the residence time of the reactors was 36 minutes. The reactors were operated at room temperature (c.a. 26° C.). In this example, two RDRs were operated in parallel with one receiving compound 110 and the other serving as an untreated control. […] The plates were incubated for 24 hours at 37° C. before colony forming units (CFU) were determined.

Row | SMILES | Biofilm Inhibition- Pseudomonas aeruginosa (Pseudomonas aeruginosa [1]) | MIC (μg/mL) - Pseudomonas aeruginosa (Pseudomonas aeruginosa [2]) | MIC (μg/mL) - Escherichia coli (Escherichia coli) | MIC (μg/mL) - Staphylococcus aureus (Staphylococcus aureus) | Biofilm Inhibition- Escherichia coli (E. coli JM109) | Prevention of biofilm growth at 15 μg/mL (E. coli [3]; 15 μg/mL, E. coli in LB, added with inoculum, 0 through 50 hours of incubation, FIG. 2) | Concentration as low as which effective at reducing biofilm mass (E. coli [3]; E. coli in LB with 0.2% glucose, added along with the inoculum, FIG. 5) | Concentration as low as which reduces existing biofilm mass (E. coli [3]; E. coli in LB, added 24 hours after inoculation, FIG. 4) | Concentration as low as which effective in preventing biofilm formation (E. coli [3]; E. coli in LB, added along with the inoculum, FIGS. 2 and 3) | Estimated mass of existing biofilm after 24 hours of incubation with compound (E. coli [3]; each of the concentrations tested (1, 2, 5, 10 μg/mL), added 24 hours after inoculation, approximately 50 hours post inoculation, FIG. 4) | Effect on growth of E. coli (E. coli [4]) | inhibition at 10 µg/mL [5] | inhibition at 10 µg/mL (Pseudomonas aeruginosa [1]; Pseudomonas aeruginosa) | Inhibition at 30 μM - Hep G2 cells [6] | MIC (Pseudomonas aeruginosa [2]; Pseudomonas aeruginosa, read-out: MIC (μg/mL) - Pseudomonas aeruginosa) | MIC (Escherichia coli; Escherichia coli, read-out: MIC (μg/mL) - Escherichia coli) | inhibition at 10 µg/mL (E. coli JM109; Escherichia coli, JM 109, 48 h) | CFU (in log 10) [7]
1 | C[C@@H]1CC[C@]2(C(=O)O)CCC3(C)C(=CCC4C5(C)C[C@@H](O)[C@H](O)C(C)(C)C5CCC43C)C2[C@H]1C (stereo partly shown) [Compound 108] | 52% | >10 µg/mL | >15 µg/mL | >32 µg/mL | 74% | almost completely prevent biofilm growth | 1 µg/mL | 1 µg/mL | 1 µg/mL | decreased significantly | did not inhibit the growth; also recorded: does not inhibit the growth |  |  |  |  |  |  | 
2 | C[C@H]1[C@H](C)CC[C@]2(C(=O)O)CC[C@]3(C)C(=CC[C@@H]4[C@@]5(C)CC[C@H](O)C(C)(C)[C@@H]5CC[C@]43C)[C@H]12 [Compound 110, ursolic acid] |  |  |  |  |  |  |  |  |  |  |  | ~25% | 35% | 2% | > 128 µg/mL | > 10 µg/mL | 80% | 7.1 CFU (in log 10)
3 | NC[C@H]1O[C@H](O[C@H]2[C@H](O)[C@@H](O[C@H]3O[C@H](CO)[C@@H](O)[C@H](N)[C@H]3O)[C@H](N)C[C@@H]2N)[C@H](N)C[C@@H]1O [Tobramycin, reference compound] |  |  |  |  |  |  |  |  |  |  |  |  |  |  |  |  |  | 6.1 CFU (in log 10)
